SMILES strings stand for the structures. Numbered stars: 1 amine (or outer) side, 2 acyl side, 3 side chain; on linkers, the order of the positions; unused ones are H or OH. Bridge positions count the residues as written; N and C are the ends. Square brackets hold non-standard residues; d marks the D form. Peptide text beside a SMILES is read from it. X2 = CCCc1cccc2c(C[C@H](N[*:1])C(=O)[*:2])c[nH]c12; X1 = CCc1cccc2c(C[C@H](N[*:1])C(=O)[*:2])c[nH]c12; Trp(7-Me) = Cc1cccc2c(C[C@H](N)C(=O)O)c[nH]c12; Trp(1-Me) = Cn1cc(C[C@H](N)C(=O)O)c2ccccc21; 2Nal = N[C@@H](Cc1ccc2ccccc2c1)C(=O)O; AEF = NCCOc1ccc(C[C@H](N)C(=O)O)cc1; Cit = NC(=O)NCCC[C@H](N)C(=O)O; Pen = CC(C)(S)[C@H](N)C(=O)O; αMeK = C[C@](N)(CCCCN)C(=O)O; βAla = NCCC(=O)O

Data set [1] is described as follows: in vitro. The data set is classed as in vitro ADME. Set-up: half-life: dose or concentration left out as unconfirmed. The note with it: simulated intestinal fluid (SIF) with pancreatin, pH 6.8, 37° C., § matrix is 100 fold dilution of standard SIF concentration, read-out: SIF t½ (converted).
Data set [2] can be described thus: in vitro. Particulars: cynomolgus monkey, 20% fecal homogenate (supernatant), anaerobic, pH 6.8.
The nature of data set [3]: in vitro. Particulars: both, SD, rat, plasma (EDTA).
In data set [4] the target is T1, IL-23R (Homo sapiens, UniProt Q5VWK5).
T1 sequence (Q5VWK5 24-629): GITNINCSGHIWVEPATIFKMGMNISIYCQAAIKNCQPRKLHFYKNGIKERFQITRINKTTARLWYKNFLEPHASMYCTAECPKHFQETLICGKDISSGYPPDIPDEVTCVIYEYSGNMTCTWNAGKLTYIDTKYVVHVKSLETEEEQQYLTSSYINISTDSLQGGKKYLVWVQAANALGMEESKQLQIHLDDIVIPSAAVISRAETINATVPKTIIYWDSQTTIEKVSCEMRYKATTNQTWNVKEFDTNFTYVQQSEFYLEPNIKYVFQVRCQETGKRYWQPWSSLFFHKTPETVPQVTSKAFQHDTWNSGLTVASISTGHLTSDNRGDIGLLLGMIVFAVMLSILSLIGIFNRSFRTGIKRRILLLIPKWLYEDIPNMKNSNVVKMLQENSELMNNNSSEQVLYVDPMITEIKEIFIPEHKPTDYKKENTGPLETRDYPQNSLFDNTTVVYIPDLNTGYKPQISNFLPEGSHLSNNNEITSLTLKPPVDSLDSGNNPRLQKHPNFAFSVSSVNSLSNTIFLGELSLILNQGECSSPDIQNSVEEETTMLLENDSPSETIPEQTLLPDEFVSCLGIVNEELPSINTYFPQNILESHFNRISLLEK
The data set can be described thus: DB cells IL23R pSTAT3 cell assay (pStat3 HTRF). The note with it: Table E3; DB cells, IL-23 0.5 nM, 30 minutes at 37° C.; read-out: pStat3 HTRF (IC50). The data set is classed as cell-based. Put shortly:
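HTRF readout of lysate pSTAT3 (Tyr705) after two-plate processing. Peptide dilution series co-incubated with IL-23 (0.5 nM final) on 5×10E5 IL-23R-expressing DB cells per well, 30 min, 37 °C.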
In general terms: Time-resolved FRET reads energy transfer from a long-lived donor to a nearby acceptor.

A short description of data set [5]: in vitro. The note with it: human, 20% fecal homogenate (supernatant), anaerobic, pH 6.8.

Consider `CC(=O)NCCCC[C@H](NC(=O)[C@](C)(CCCCN)NC(=O)[C@H](Cc1ccc2ccccc2c1)NC(=O)[C@H](Cc1ccc(OCCN)cc1)NC(=O)[C@H]1NC(=O)[C@H](CCCNC(N)=O)NC(=O)[C@H](Cc2c[nH]c3c(C)cccc23)NC(=O)[C@H]([C@@H](C)O)NC(=O)[C@H](CC(N)=O)NC(=O)[C@@H](NC(C)=O)C(C)(C)SSC1(C)C)C(=O)N[C@@H](CC(N)=O)C(=O)N[C@H](Cc1ccc(O)cc1)C(N)=O` [compound 259] (Ac-[Pen]NT[Trp(7-Me)][Cit][Pen][AEF][2Nal][αMeK]K(Ac)N[dY]-NH2; disulfide 1-6), for which the half-life in data set [1] was 720 min. Also, the half-life at 20 μM in data set [2] was 960 min; in data set [3] it was above 1440 min; in data set [5], above 1440 min. Besides, the half-inhibitory concentration (IC50) in data set [4] is below 1 nM.
As to `CC(=O)NCCCC[C@H](NC(=O)[C@](C)(CCCCN)NC(=O)[C@H](Cc1ccc2ccccc2c1)NC(=O)[C@H](Cc1ccc(OCCN)cc1)NC(=O)[C@H]1NC(=O)[C@H](CCCNC(N)=O)NC(=O)[C@H](Cc2c[nH]c3c(C)cccc23)NC(=O)[C@H]([C@@H](C)O)NC(=O)[C@H](CC(N)=O)NC(=O)[C@@H](NC(C)=O)C(C)(C)SSC1(C)C)C(=O)N[C@@H](CC(N)=O)C(=O)N[C@H](CO)C(N)=O` [compound 261] (Ac-[Pen]NT[Trp(7-Me)][Cit][Pen][AEF][2Nal][αMeK]K(Ac)N[dS]-NH2; disulfide 1-6), the half-life in data set [1] is 1080 min. Also, the half-life at 20 μM was 240 min in data set [2], above 1440 min in data set [3] and above 1440 min in data set [5]. Besides, the IC50 in data set [4] is below 1 nM.
Consider `CC(=O)NCCCC[C@H](NC(=O)[C@](C)(CCCCN)NC(=O)[C@H](Cc1ccc2ccccc2c1)NC(=O)[C@H](Cc1ccc(OCCN)cc1)NC(=O)[C@H]1NC(=O)[C@H](CCCNC(N)=O)NC(=O)[C@H](Cc2c[nH]c3c(C)cccc23)NC(=O)[C@H]([C@@H](C)O)NC(=O)[C@H](CC(N)=O)NC(=O)[C@@H](NC(C)=O)C(C)(C)SSC1(C)C)C(=O)N[C@@H](CC(N)=O)C(=O)N[C@@H](C(N)=O)[C@H](C)O` [compound 263] (Ac-[Pen]NT[Trp(7-Me)][Cit][Pen][AEF][2Nal][αMeK]K(Ac)N[dT]-NH2; disulfide 1-6), for which the half-life in data set [1] is 840 min. Moreover, the half-life at 20 μM was 540 min in data set [2], above 1440 min in data set [3] and above 1440 min in data set [5]. In data set [4], the IC50 was below 1 nM.
Turning to `CC(=O)NCCCC[C@H](NC(=O)[C@](C)(CCCCN)NC(=O)[C@H](Cc1ccc2ccccc2c1)NC(=O)[C@H](Cc1ccc(OCCN)cc1)NC(=O)[C@H]1NC(=O)[C@H](CCCNC(N)=O)NC(=O)[C@H](Cc2c[nH]c3c(C)cccc23)NC(=O)[C@H]([C@@H](C)O)NC(=O)[C@H](CC(N)=O)NC(=O)[C@@H](NC(C)=O)C(C)(C)SSC1(C)C)C(=O)NCCC(=O)NCCC(N)=O` [compound 268] (Ac-[Pen]NT[Trp(7-Me)][Cit][Pen][AEF][2Nal][αMeK]K(Ac)[βAla][βAla]-NH2; disulfide 1-6), in data set [1], the half-life was 900 min. Further, the half-life at 20 μM in data set [2], in data set [3] and in data set [5] was above 1440 min in each case. Also, the concentration for half-maximal inhibition (IC50) in data set [4] is 1 to 10 nM.
Turning to `CC(=O)NCCCC[C@H](NC(=O)C1(NC(=O)[C@H](Cc2ccc3ccccc3c2)NC(=O)[C@H](Cc2ccc(OCCN)cc2)NC(=O)[C@H]2NC(=O)[C@H](CCC(N)=O)NC(=O)[C@H](Cc3c[nH]c4c(C)cccc34)NC(=O)[C@H]([C@@H](C)O)NC(=O)[C@H](CC(N)=O)NC(=O)[C@@H](NC(C)=O)C(C)(C)SSC2(C)C)CCCCC1)C(=O)N[C@@H](CC(N)=O)C(=O)NCCC(N)=O` [compound 274], in data set [1], the half-life was 300 min. For the same compound, the half-life at 20 μM is 240 min in data set [2], 300 min in data set [3] and above 1440 min in data set [5]. Moreover, in data set [4], the concentration for half-maximal inhibition (IC50) is below 1 nM.
For the compound `CCC(CC)(NC(=O)[C@H](Cc1ccc2ccccc2c1)NC(=O)[C@H](Cc1ccc(OCCN)cc1)NC(=O)[C@H]1NC(=O)[C@H](CCC(N)=O)NC(=O)[C@H](Cc2c[nH]c3c(C)cccc23)NC(=O)[C@H]([C@@H](C)O)NC(=O)[C@H](CC(N)=O)NC(=O)[C@@H](NC(C)=O)C(C)(C)SSC1(C)C)C(=O)N[C@@H](CCCCNC(C)=O)C(=O)N[C@@H](CC(N)=O)C(=O)NCCC(N)=O` [compound 276], the half-life in data set [1] was 780 min. In addition, the values for the half-life at 20 μM in data set [2], in data set [3] and in data set [5] were 780 min, 300 min and above 1440 min, respectively. Besides, the concentration for half-maximal inhibition (IC50) in data set [4] is below 1 nM.
`CC(=O)N[C@@H]1C(=O)N[C@@H](CC(N)=O)C(=O)N[C@@H]([C@@H](C)O)C(=O)N[C@@H](Cc2c[nH]c3c(C)cccc23)C(=O)N[C@@H](CCC(N)=O)C(=O)N[C@H](C(=O)N[C@@H](Cc2ccc(OCCN)cc2)C(=O)N[C@@H](Cc2ccc3ccccc3c2)C(=O)N[C@@](C)(CCCCN)C(=O)N[C@@H](CCCNC(N)=O)C(=O)NCCC(=O)NCCC(N)=O)C(C)(C)SSC1(C)C` [compound 279]: in data set [1], the half-life is 420 min. Further, the half-life at 20 μM in data set [2], in data set [3] and in data set [5] was above 1440 min throughout. In data set [4], the half-inhibitory concentration (IC50) is 1 to 10 nM.
With `CC(=O)NCCCC[C@H](NC(=O)[C@](C)(CCCCN)NC(=O)[C@H](Cc1ccc2ccccc2c1)NC(=O)[C@H](Cc1ccc(OCCN)cc1)NC(=O)[C@H]1NC(=O)[C@H](CCCNC(N)=O)NC(=O)[C@H](Cc2cn(C)c3ccccc23)NC(=O)[C@H]([C@@H](C)O)NC(=O)[C@H](CC(N)=O)NC(=O)[C@@H](NC(C)=O)C(C)(C)SSC1(C)C)C(=O)NCCC(=O)NCCC(N)=O` [compound 280] (Ac-[Pen]NT[Trp(1-Me)][Cit][Pen][AEF][2Nal][αMeK]K(Ac)[βAla][βAla]-NH2; disulfide 1-6), the half-life in data set [1] was 480 min. Further, the half-life at 20 μM in data set [2], in data set [3] and in data set [5] was above 1440 min in each case. Besides, in data set [4], the concentration for half-maximal inhibition (IC50) is 10 to 100 nM.
`CCc1cccc2c(C[C@@H]3NC(=O)[C@H]([C@@H](C)O)NC(=O)[C@H](CC(N)=O)NC(=O)[C@@H](NC(C)=O)C(C)(C)SSC(C)(C)[C@@H](C(=O)N[C@@H](Cc4ccc(OCCN)cc4)C(=O)N[C@@H](Cc4ccc5ccccc5c4)C(=O)N[C@@](C)(CCCCN)C(=O)N[C@@H](CCCCNC(C)=O)C(=O)N[C@@H](CC(N)=O)C(=O)N[C@H](CC(C)C)C(N)=O)NC(=O)[C@H](CCCCNC(C)=O)NC3=O)c[nH]c12` [compound 284] (Ac-[Pen]NT[X1]K(Ac)[Pen][AEF][2Nal][αMeK]K(Ac)N[dL]-NH2; disulfide 1-6): the half-life in data set [1] is 120 min. The half-life at 20 μM in data set [2], in data set [3] and in data set [5] was above 1440 min in each case. Further, the IC50 in data set [4] is below 1 nM.
For the compound `CCCc1cccc2c(C[C@@H]3NC(=O)[C@H]([C@@H](C)O)NC(=O)[C@H](CC(N)=O)NC(=O)[C@@H](NC(C)=O)C(C)(C)SSC(C)(C)[C@@H](C(=O)N[C@@H](Cc4ccc(OCCN)cc4)C(=O)N[C@@H](Cc4ccc5ccccc5c4)C(=O)N[C@@](C)(CCCCN)C(=O)N[C@@H](CCCCNC(C)=O)C(=O)N[C@@H](CC(N)=O)C(=O)N[C@H](CC(C)C)C(N)=O)NC(=O)[C@H](CCCCNC(C)=O)NC3=O)c[nH]c12` [compound 285] (Ac-[Pen]NT[X2]K(Ac)[Pen][AEF][2Nal][αMeK]K(Ac)N[dL]-NH2; disulfide 1-6), in data set [1], the half-life was 540 min. In addition, the half-life at 20 μM in data set [2], in data set [3] and in data set [5] was above 1440 min each time. Further, the IC50 in data set [4] is below 1 nM.
With `COc1cccc2c(C[C@@H]3NC(=O)[C@H]([C@@H](C)O)NC(=O)[C@H](CC(N)=O)NC(=O)[C@@H](NC(C)=O)C(C)(C)SSC(C)(C)[C@@H](C(=O)N[C@@H](Cc4ccc(OCCN)cc4)C(=O)N[C@@H](Cc4ccc5ccccc5c4)C(=O)N[C@@](C)(CCCCN)C(=O)N[C@@H](CCCCNC(C)=O)C(=O)N[C@@H](CC(N)=O)C(=O)N[C@H](CC(C)C)C(N)=O)NC(=O)[C@H](CCCCNC(C)=O)NC3=O)c[nH]c12` [compound 288], in data set [1], the half-life is 720 min. Besides, the half-life at 20 μM in data set [2], in data set [3] and in data set [5] was above 1440 min throughout. Also, the half-maximal inhibitory concentration (IC50) in data set [4] lay in the range of 1 to 10 nM.

A word on the IC50: it is the concentration needed to halve the response being measured.
